Measured values published in US20220175850A1, “COMPOSITIONS AND METHODS FOR CANCER THERAPY” (priority 2019, published 2022).

Key:
[1] = system: triple negative breast cancer cells; assay: Tumor marker expression in animal model of triple negative breast cancer, supplement with or without chemotherapeutic drugs; type: in vivo, mice; conditions: primary tumor; supplement at low, mid, high dose with Taxol or Adriamycin; drugs alone
[2] = system: triple negative breast cancer cells; assay: as above; type: in vivo, mice
Description: […] Animals were also treated with taxol, taxol and the supplement in combination, adriamycin, adriamycin and the supplement in combination, avastin, and avastin and the supplement in combination.
FIG. 9A depicts a typical study design for animal model studies of this phenomena. Three different supplement formulations were used that provided low (NFS), mid (NFM-containing 1.5 times the Se content of NFS), and high (NFH, containing twice the Se content of NFS) doses of selenium and fish oil. These supplement formulations were provided in combination with a chemotherapeutic drug (such as Taxol or Adriamycin).
As noted above, nutritional supplements can be provided that include different amounts of selenium (Se), and can also be provided with or used in combination with a chemotherapeutic agent.
CD24 and CD29 are markers that are commonly used to determine degree of stem cell character. […] Mice were also treated with taxol, taxol and the supplement in combination, adriamycin, adriamycin and the supplement in combination, avastin, and avastin and the nutritional supplement in combination. […] As in FIG. 9, nutritional supplements containing low, mid, and high amounts of selenium were provided in combination with either avastin or taxol.

[3] = system: A549 human lung cancer sphere cells; assay: Marker protein expression in stem-cell like A549 sphere cells; type: cell-based
Description: FIG. 7B depicts an exemplary Western blot of PD-L1 expression in stem-cell like sphere cells derived from A549 human lung cancer cells.

HCC827GR cells = assay: Marker protein expression in Iressa-resistant HCC827GR lung cancer cells; type: cell-based, human
Description: The HCC827GR cell line is a lung cancer cell line that is resistant to Iressa.

[4] = tumor, supplement at low, mid, high doses in combination with taxol or avastin, drug alone
[5] = metastatic brain tumor site, different amounts of supplement in combination with Taxol, taxol alone

COc1cccc2c1C(=O)c1c(O)c3c(c(O)c1C2=O)C[C@@](O)(C(=O)CO)C[C@@H]3O[C@H]1C[C@H](N)[C@H](O)[C@H](C)O1 [adriamycin]
PD-1 expression [1]: increased slightly
PD-L1 expression [1]: no apparent effect

avastin: chemotherapeutic agent used in the animal tumor model
CXCR4 expression ([2]; tumor tissue, avastin alone or cotherapy with supplement at low, mid, high doses): little effect
p-PTEN expression [2, 4]: decrease induced by either taxol or avastin
p-STAT3 expression [2, 4]: decrease induced by either taxol or avastin

CC(=O)O[C@H]1C(=O)[C@@]2(C)[C@H]([C@H](OC(=O)c3ccccc3)[C@]3(O)C[C@H](OC(=O)[C@H](O)[C@@H](NC(=O)c4ccccc4)c4ccccc4)C(C)=C1C3(C)C)[C@]1(OC(C)=O)CO[C@@H]1C[C@@H]2O [taxol]
CD24 expression [2, 5]: no apparent effect
CD29 expression [2, 5]: no apparent effect
MMP-9 expression [2, 5]: no apparent effect
VEGF expression [2, 5]: no apparent effect
EGFR expression ([2]; tumor tissue, supplement with different amounts of selenium co-treated with taxol or avastin, drug alone): not impacted
PTEN expression [2, 4]: increase induced by taxol
p-PTEN expression [2, 4]: decrease induced by either taxol or avastin
p-STAT3 expression [2, 4]: decrease induced by either taxol or avastin
PD-1 expression [1]: increased slightly
PD-L1 expression [1]: no apparent effect

selenium
p-HSP27 expression [3]: not found
vimentin expression [3]: not seen

COc1cc2ncnc(Nc3ccc(F)c(Cl)c3)c2cc1OCCCN1CCOCC1 [Iressa]
Axl expression (HCC827GR cells; 24 hours of treatment, in either the absence or presence of Iressa): not reduced
Axl expression (HCC827GR cells; 72 hours): no apparent effect
HSP90 expression (HCC827GR cells; 72 hours): no apparent effect
PD-L1 expression (HCC827GR cells; chemotherapy resistant cancer cells): has no effect
